Like-named read-outs stand apart in the source and are kept apart here.
What was measured:
[1] = target: Beta Secretase enzyme (BACE) (Homo sapiens, UniProt P56817); assay: In vitro enzymatic BACE FRET (fluorescence resonance energy transfer) assay; type: biochemical;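 also: fluorescence read after 1 h with 50 nM quenched peptide substrate spanning the BACE cleavage site, in pH 4.2 acetate buffer containing 10% DMSO and nonionic detergent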
[2] = system: Aβ40 in conditioned medium of cells stably expressing Amyloid Precursor Protein (APP); assay: In vitro BACE cell-based assay (Aβ40 in conditioned medium, sandwich ELISA); conditions: Homo sapiens;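 also: compounds added as a dilution series, secreted peptide quantified by europium time-resolved fluorescence readout, potency fitted from percent of control versus compound concentration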
[3] = target: CYP3A4 (CYP3A) (Homo sapiens, UniProt P08684); assay: in vitro; conditions: microsomes, pH 7.4;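 also: inhibition of CYP3A-mediated 1-hydroxymidazolam formation after 10 min incubation with NADPH, quantified by HPLC MS relative to metabolite produced without test compound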
Sequence of CYP3A4 (CYP3A) (P08684 2-503): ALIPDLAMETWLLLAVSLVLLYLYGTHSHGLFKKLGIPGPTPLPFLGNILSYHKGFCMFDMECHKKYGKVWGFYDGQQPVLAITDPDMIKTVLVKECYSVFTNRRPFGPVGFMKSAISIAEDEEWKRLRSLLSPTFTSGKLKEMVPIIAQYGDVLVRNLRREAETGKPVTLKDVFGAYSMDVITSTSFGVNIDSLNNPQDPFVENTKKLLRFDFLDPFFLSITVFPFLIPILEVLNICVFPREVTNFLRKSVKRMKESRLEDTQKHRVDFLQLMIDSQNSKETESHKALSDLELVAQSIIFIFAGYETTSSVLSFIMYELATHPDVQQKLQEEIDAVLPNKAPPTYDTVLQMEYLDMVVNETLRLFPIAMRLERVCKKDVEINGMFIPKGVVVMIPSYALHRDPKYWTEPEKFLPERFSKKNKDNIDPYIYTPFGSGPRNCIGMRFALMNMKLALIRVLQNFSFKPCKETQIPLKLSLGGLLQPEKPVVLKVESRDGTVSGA

[4] = Microsomal stability assay, rat liver microsomes;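 also: rat liver microsomes (0.25 mg/mL) with about 1 µM compound plus 1 mM NADPH, pH 7.4, 37 °C for 30 min, parent left measured by LC-MS/MS against 0 min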
[5] = Microsomal stability assay, human liver microsomes;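 also: pooled human liver microsomes at 0.25 mg/mL with 1 µM compound and NADPH at 37 °C, pH 7.4, for 30 min, unchanged parent quantified by LC-MS/MS against the 0 min sample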
[6] = target: CYP2D6 (Homo sapiens, UniProt P10635); assay: CYP2D6 inhibition assay (bufuralol, pooled human liver microsomes)
Sequence of CYP2D6 (P10635 whole entry): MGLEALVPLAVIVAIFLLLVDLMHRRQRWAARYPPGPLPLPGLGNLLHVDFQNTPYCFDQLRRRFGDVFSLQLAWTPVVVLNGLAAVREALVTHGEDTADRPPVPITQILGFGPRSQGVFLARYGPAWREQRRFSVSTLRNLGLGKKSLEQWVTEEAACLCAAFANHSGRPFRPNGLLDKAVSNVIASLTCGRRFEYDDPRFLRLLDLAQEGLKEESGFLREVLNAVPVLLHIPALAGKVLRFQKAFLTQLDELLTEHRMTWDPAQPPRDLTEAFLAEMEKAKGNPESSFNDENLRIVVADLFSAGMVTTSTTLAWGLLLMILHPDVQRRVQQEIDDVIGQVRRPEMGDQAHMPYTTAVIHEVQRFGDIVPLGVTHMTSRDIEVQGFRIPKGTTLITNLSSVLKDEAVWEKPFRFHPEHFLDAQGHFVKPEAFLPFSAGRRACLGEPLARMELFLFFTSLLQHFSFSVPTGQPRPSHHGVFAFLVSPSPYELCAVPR

[7] = read-out: BACE1 FRET assay (IC50)
[8] = HEK293, HEK cells, read-out: HEK cell assay (IC50)
[9] = BACE enzyme assay, IC50's in uM, read-out: BACE1 FRET assay
[10] = HEK293, HEK cell-based assay, IC50's in uM, read-out: HEK cell assay
[11] = 2D6 IC50 (uM), CYP enzyme inhibition
[12] = BACE enzyme assay, read-out: BACE1 FRET assay
[13] = HEK293, HEK cells, read-out: HEK cell assay
[14] = HEK293, cell-based assay, HEK cells, IC50's in uM, read-out: HEK cell assay
[15] = 2D6 IC50, CYP enzyme inhibition
[16] = BACE enzyme assay IC50, read-out: BACE1 FRET assay
[17] = HEK293, HEK cell-based assay IC50, read-out: HEK cell assay
[18] = 2D6 IC50 (uM), CYP2D6 inhibition

Sequence of Beta Secretase enzyme (BACE) (P56817 46-501): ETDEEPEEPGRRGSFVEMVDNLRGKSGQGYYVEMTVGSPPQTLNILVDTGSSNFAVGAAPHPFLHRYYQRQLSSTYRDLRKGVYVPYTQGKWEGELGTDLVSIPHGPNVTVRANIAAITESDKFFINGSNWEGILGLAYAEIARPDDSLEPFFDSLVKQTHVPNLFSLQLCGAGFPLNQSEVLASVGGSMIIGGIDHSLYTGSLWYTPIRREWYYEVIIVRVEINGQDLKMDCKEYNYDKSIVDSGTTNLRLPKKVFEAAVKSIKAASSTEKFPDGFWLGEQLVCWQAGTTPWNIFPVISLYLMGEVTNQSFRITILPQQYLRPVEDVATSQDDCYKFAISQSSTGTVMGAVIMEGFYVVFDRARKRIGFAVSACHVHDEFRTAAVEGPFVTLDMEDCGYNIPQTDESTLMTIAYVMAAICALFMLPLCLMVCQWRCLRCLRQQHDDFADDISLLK

COCC(=O)N[C@@H](Cc1ccc(F)cc1)[C@H](O)CN[C@H]1CC2(CCC2)Oc2c1cc(CC(C)(C)C)nc2Nc1ccccc1 [compound 612]
IC50 [1, 7]: 0.21 µM | IC50 [2, 8]: > 10 µM | IC50 [3]: ≥ 27000 nM | RLM ([4]; rat liver microsomes): 245 µL/min/mg | HLM ([5]; human liver microsomes): 176 µL/min/mg | IC50 ([6]; 2D6 IC50, CYP2D6 inhibition): ≥ 27 µM

COCC(=O)N[C@@H](Cc1cccc(-c2nccs2)c1)[C@H](O)CN[C@@H]1C[C@@]2(CCOC2)Oc2ncc(CC(C)(C)C)cc21 [compound 827, N-((1S,2R)-3-(((3S,4′R)-6′-(2,2-dimethylpropyl)-3′,4,4′,5-tetrahydrospiro[furan-3,2′-pyrano[2,3-b]pyridin]-4′-yl)amino)-2-hydroxy-1-(3-(1,3-thiazol-2-yl)benzyl)propyl)-2-methoxyacetamide]
IC50 [1, 9]: 0.006 µM | IC50 [2, 10]: 0.007 µM | IC50 [3]: 500 nM | RLM ([4]; rat liver microsomal data): 197 µL/min/mg | HLM ([5]; human liver microsomal data): 97 µL/min/mg | IC50 [6, 11]: 2.1 µM

COCC(=O)N[C@@H](Cc1ccc(F)cc1)[C@H](O)CN[C@H]1CC2(CCC2)Oc2c1cc(CC(C)(C)C)nc2C#N [compound 493]
IC50 [1, 12]: 0.044 µM | IC50 [2, 13]: 0.471 µM | IC50 [3]: 600 nM | RLM ([4]; rat liver microsomal data): 221 µL/min/mg | HLM ([5]; human liver microsomal data): 95 µL/min/mg | IC50 [6, 11]: 11.6 µM

COCC(=O)N[C@@H](Cc1cccc([C@H]2CCCO2)c1)[C@H](O)CN[C@H]1CC2(CCC2)Oc2ncc(CC(C)(C)C)cc21 [compound 916]
IC50 [1, 9]: 9.5 µM | IC50 [2, 14]: 2.25 µM | IC50 [3]: 400 nM | RLM ([4]; rat liver microsomal data): 644 µL/min/mg | HLM ([5]; human liver microsomal data): 399 µL/min/mg | IC50 [6, 15]: 8.1 µM

CC(=O)N[C@@H](Cc1ccc(F)cc1)[C@H](O)CN[C@H]1CC2(CCC2)Oc2c1cc(CC(C)(C)C)nc2N1CCOCC1 [Example 421, N-((2S,3R)-4-((S)-2,2-spirocyclobutyl-8-morpholino-6-neopentyl-3,4-dihydro-2H-pyrano[2,3-c]pyridin-4-ylamino)-1-(4-fluorophenyl)-3-hydroxybutan-2-yl)acetamide]
IC50 [1, 12]: 0.134 µM | IC50 [2, 13]: 0.054 µM | IC50 [3]: 1300 nM | RLM ([4]; rat liver microsomal data): 151 µL/min/mg | HLM ([5]; human liver microsomal data): 211 µL/min/mg | IC50 [6, 11]: 3.6 µM

CO[C@H](C)C(=O)N[C@@H](Cc1cc(F)cc(-c2nccs2)c1)[C@H](O)CN[C@H]1CC2(CCC2)Oc2ncc(C#CC3CC3)cc21 [compound 880]
IC50 [1, 9]: 21 µM | IC50 [2, 14]: 0.063 µM | IC50 [3]: 300 nM | RLM ([4]; rat liver microsomal data): 107 µL/min/mg | HLM ([5]; human liver microsomal data): 71 µL/min/mg | IC50 [6, 15]: 0.3 µM

CCO[C@@H](C)C(=O)N[C@@H](Cc1ccc2c(c1)OCO2)[C@H](O)CN[C@H]1CC2(CCC2)Oc2ncc(CC(C)C)cc21 [compound 809]
IC50 [1, 9]: 0.269 µM | IC50 [2, 10]: 0.513 µM | IC50 [3]: 200 nM | RLM ([4]; rat liver microsomal data): 117 µL/min/mg | HLM ([5]; human liver microsomal data): 33 µL/min/mg | IC50 [6, 11]: 6.7 µM

COCC(=O)N[C@@H](Cc1cccc(C#N)c1)[C@H](O)CN[C@H]1CC2(CC(F)(F)C2)Oc2ncc(CC(C)(C)C)cc21 [compound 470]
IC50 ([1]; Table 2, read-out: BACE1 FRET assay): 0.004 µM | IC50 ([2]; HEK293, Table 2, HEK cells, read-out: HEK cell assay): 0.014 µM | IC50 [3]: 1100 nM | RLM ([4]; rat liver microsomal data): 560 µL/min/mg | HLM ([5]; human liver microsomal data): 579 µL/min/mg | IC50 [6, 15]: 5.8 µM

CC(=O)N[C@@H](Cc1ccc(F)cc1)[C@H](O)CN[C@H]1CC2(CCC2)Oc2c1cc(CC(C)(C)C)nc2NC1CCC1 [compound 497]
IC50 [1, 12]: 0.077 µM | IC50 [2, 13]: 0.1 µM | IC50 [3]: 3300 nM | RLM ([4]; rat liver microsomal data): 172 µL/min/mg | HLM ([5]; human liver microsomal data): 157 µL/min/mg | IC50 [6, 11]: 2.6 µM

COCC(=O)N[C@@H](Cc1cc(F)cc(F)c1)[C@H](O)CN[C@H]1CC2(CCC2)Oc2c1cc(CC(C)(C)C)nc2Nc1ccccc1 [compound 599]
IC50 [1, 7]: 0.018 µM | IC50 [2, 8]: 0.395 µM | IC50 [3]: 6400 nM | RLM ([4]; rat liver microsomes): 125 µL/min/mg | HLM ([5]; human liver microsomes): 120 µL/min/mg | IC50 ([6]; 2D6 IC50, CYP2D6 inhibition): ≥ 27 µM

Cc1ccccc1CN1CCO[C@H](C(=O)N[C@@H](Cc2ccc(F)cc2)[C@H](O)CN[C@H]2CC3(CCC3)Oc3ncc(CC(C)(C)C)cc32)C1 [compound 697]
IC50 [1, 16]: 0.087 µM | IC50 [2, 17]: 0.143 µM | IC50 [3]: 200 nM | RLM ([4]; rat liver microsomes): 399 µL/min/mg | HLM ([5]; human liver microsomes): 775 µL/min/mg | IC50 [6, 18]: 2.7 µM

COCC(=O)N[C@@H](Cc1ccc(F)cc1)[C@H](O)CN[C@H]1CC2(CCC2)Oc2ncc(CC(C)(C)C#N)cc21 [compound 496]
IC50 [1, 12]: 0.024 µM | IC50 [2, 13]: 0.102 µM | IC50 [3]: 4700 nM | RLM ([4]; rat liver microsomal data): 139 µL/min/mg | HLM ([5]; human liver microsomal data): 89 µL/min/mg | IC50 [6, 11]: ≥ 27 µM

COCC(=O)N[C@@H](Cc1cc(F)cc(F)c1)[C@H](O)CN[C@H]1CC2(CCC2)Oc2c(-c3cncn3C)cc(CC(C)C)cc21 [compound 631]
IC50 [1, 7]: 0.019 µM | IC50 [2, 8]: 0.004 µM | IC50 [3]: 100 nM | RLM ([4]; rat liver microsomes): 209 µL/min/mg | HLM ([5]; human liver microsomes): 36 µL/min/mg | IC50 ([6]; 2D6 IC50, CYP2D6 inhibition): 3.9 µM

COC(OC)C(=O)N[C@@H](Cc1cc(F)cc(-c2nccs2)c1)[C@H](O)CN[C@H]1CC2(CCC2)Oc2ncc(CC(C)(C)C)cc21 [compound 871]
IC50 [1, 9]: 0.007 µM | IC50 [2, 14]: 0.01 µM | IC50 [3]: 200 nM | RLM ([4]; rat liver microsomal data): 73 µL/min/mg | HLM ([5]; human liver microsomal data): 59 µL/min/mg | IC50 [6, 15]: 0.7 µM

Cc1ccccc1CN1CCO[C@@H](C(=O)N[C@@H](Cc2ccc(F)cc2)[C@H](O)CN[C@H]2CC3(CCC3)Oc3ncc(CC(C)(C)C)cc32)C1 [compound 692]
IC50 [1, 16]: 0.013 µM | IC50 [2, 17]: 0.024 µM | IC50 [3]: 200 nM | RLM ([4]; rat liver microsomes): 590 µL/min/mg | HLM ([5]; human liver microsomes): 706 µL/min/mg | IC50 [6, 18]: 5.1 µM

COCC(=O)N[C@@H](Cc1cccc(F)c1)[C@H](O)CN[C@@H]1CC2(CCC2)Oc2c1cc(CC(C)(C)C)nc2-n1ccnc1 [compound 502]
IC50 [1, 12]: 2 µM | IC50 [2, 13]: 1.85 µM | IC50 [3]: 100 nM | RLM ([4]; rat liver microsomal data): 158 µL/min/mg | HLM ([5]; human liver microsomal data): 54 µL/min/mg | IC50 [6, 11]: 0.8 µM

CC(=O)N[C@@H](Cc1cc(Br)c2c(c1)OCO2)[C@H](O)CN[C@H]1CC2(CCC2)Oc2ncc(CC(C)(C)F)cc21 [compound 624]
IC50 [1, 7]: 0.2 µM | IC50 [2, 8]: 0.081 µM | IC50 [3]: 160 nM | RLM ([4]; rat liver microsomes): 150 µL/min/mg | HLM ([5]; human liver microsomes): 48 µL/min/mg | IC50 ([6]; 2D6 IC50, CYP2D6 inhibition): 1.2 µM

CC(=O)N[C@@H](Cc1ccc(F)c(-c2ncc[nH]2)c1)[C@H](O)CN[C@H]1CC2(CCC2)Oc2ncc(CC(C)(C)C)cc21 [Example 428, N-((2S,3R)-4-((S)-2,2-spirocyclobutyl-6-neopentyl-3,4-dihydro-2H-pyrano[2,3-b]pyridin-4-ylamino)-1-(4-fluoro-3-(1H-imidazol-2-yl)phenyl)-3-hydroxybutan-2-yl)acetamide]
IC50 [1, 16]: 0.061 µM | IC50 [2, 17]: 0.013 µM | IC50 [3]: 300 nM | RLM ([4]; rat liver microsomes): 124 µL/min/mg | HLM ([5]; human liver microsomes): 225 µL/min/mg | IC50 [6, 18]: 1.3 µM

COCC(=O)N[C@@H](Cc1ccc2c(c1)OCO2)[C@H](O)CN[C@H]1CC2(CCC2)Oc2c(-c3ccccn3)cc(CC(C)C)cc21 [compound 767]
IC50 [1, 9]: 0.198 µM | IC50 [2, 10]: 0.251 µM | IC50 [3]: 100 nM | RLM ([4]; rat liver microsomal data): 150 µL/min/mg | HLM ([5]; human liver microsomal data): 157 µL/min/mg | IC50 [6, 11]: 3.6 µM

CO[C@H](C)C(=O)N[C@@H](Cc1ccc(F)cc1)[C@H](O)CN[C@H]1CC2(CCC2)Oc2c1cc(CC(C)(C)C)nc2-c1ccncc1 [compound 527]
IC50 [1, 12]: 0.222 µM | IC50 [2, 13]: 1.95 µM | IC50 [3]: 100 nM | RLM ([4]; rat liver microsomal data): 108 µL/min/mg | HLM ([5]; human liver microsomal data): 33 µL/min/mg | IC50 [6, 11]: 0.6 µM
